Results from PMC11359809, “Probing the molecular basis for signal transduction through the Zinc-Activated Channel (ZAC)” (Biochemical pharmacology, 2021).
Values joined by “and” are separate entries in the source; they are usually repeats but may differ in a detail not shown here. Equal entries are not always repeated.

Columns and labels:
WT m5-HT3AR = target: T1, WT m5-HT3AR (Mus musculus, UniProt P23979); assay: TEVC in Xenopus oocytes expressing WT m5-HT3AR; type: cell-based
T1 construct: expressed in transfected cells; host or cells: Xenopus oocytes injected with cRNA (pUNIV vector)
T1 sequence (P23979 24-489): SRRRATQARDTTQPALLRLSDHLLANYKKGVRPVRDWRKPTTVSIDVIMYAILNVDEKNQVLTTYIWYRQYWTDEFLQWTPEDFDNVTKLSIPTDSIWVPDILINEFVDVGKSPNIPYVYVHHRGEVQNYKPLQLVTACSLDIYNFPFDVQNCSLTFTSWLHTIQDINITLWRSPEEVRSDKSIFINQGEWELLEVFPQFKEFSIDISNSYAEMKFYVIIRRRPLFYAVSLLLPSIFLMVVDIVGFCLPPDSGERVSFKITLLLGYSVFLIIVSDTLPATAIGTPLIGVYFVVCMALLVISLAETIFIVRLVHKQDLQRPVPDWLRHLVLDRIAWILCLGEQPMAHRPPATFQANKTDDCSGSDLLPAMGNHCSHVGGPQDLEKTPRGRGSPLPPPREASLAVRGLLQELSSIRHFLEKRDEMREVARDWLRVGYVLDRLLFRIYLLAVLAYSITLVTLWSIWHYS
Procedure: (§1) The recordings were performed at room temperature.
(§2) Analysis of the data from the TEVC recordings were performed using Clampfit software version 10.5 (Molecular Devices, Crawley, UK) and GraphPad Prism version 7.0c (GraphPad Software, La Jolla, CA). Unless otherwise stated, the inward currents induced by agonists in oocytes were normalized to the maximal response elicited by a specific agonist (agonist Imax) on each oocyte. Concentration-response and concentration-inhibition curves were fitted in GraphPad Prism by nonlinear regression using the equation for sigmoidal dose-response with variable slope. Each data point represents the mean ± S.E.M. value of recordings performed on at least five oocytes in total from at least two different batches. For the data where statistical analysis was performed, a one-way ANOVA was used. The null hypothesis was rejected at P < 0.05, and the differences between the means were analyzed by Tukey’s multiple comparisons test.

m5-HT3A/ZAC = target: T2, m5-HT3A/ZAC (Mus musculus / Homo sapiens, UniProt P23979); assay: TEVC in oocytes expressing m5-HT3A/ZAC chimera; type: cell-based
T2 sequence (P23979 24-246): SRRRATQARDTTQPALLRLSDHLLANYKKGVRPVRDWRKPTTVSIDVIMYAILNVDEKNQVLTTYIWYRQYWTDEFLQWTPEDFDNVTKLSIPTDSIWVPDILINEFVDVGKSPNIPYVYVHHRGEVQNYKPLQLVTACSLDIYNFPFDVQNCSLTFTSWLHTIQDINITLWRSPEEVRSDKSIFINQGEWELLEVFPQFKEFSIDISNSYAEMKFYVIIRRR
T2 sequence (Q401N2 231-412 partner): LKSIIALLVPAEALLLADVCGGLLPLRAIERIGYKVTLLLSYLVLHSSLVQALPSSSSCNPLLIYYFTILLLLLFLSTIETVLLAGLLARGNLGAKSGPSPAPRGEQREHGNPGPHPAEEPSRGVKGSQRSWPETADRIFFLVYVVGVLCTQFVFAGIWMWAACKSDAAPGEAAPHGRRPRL
Description: The construction of the ZAC-pUNIV plasmid (encoding for the human WT ZAC that contains a Thr in position 128) has been described previously. The m5-HT3A and hα1 GlyR cDNAs were subcloned from their original vectors into pUNIV (Addgene, Watertown, MA) using NheI and EcoRI as restriction enzymes. […] The C-terminus modifications in these four chimeras were introduced in their cDNAs in the same way. Point mutations were introduced in cDNAs by use of the QuikChange mutagenesis kit (Stratagene, San Diego, CA). The validity and absence of unwanted mutations in the constructed cDNAs was verified by DNA sequencing (Macrogen Europe, Amsterdam, The Netherlands).
All cDNAs used for cRNA synthesis were inserted in the pUNIV vector. The cDNAs were linearized and subsequently transcribed and capped using the mMessage mMachine T7 RNA transcription kit (Ambion, Waltham, MA). […] Oocytes were incubated in a sterile modified Barth’s solution [88 mM NaCl, 1 mM KCl, 15 mM HEPES (pH 7.5), 2.4 mM NaHCO3, 0.41 mM CaCl2, 0.82 mM MgSO4, 0.3 mM Ca(NO3)2, 100 U/ml penicillin and 100 μg/ml streptomycin] at 16–18 °C. Based on experience gained with WT ZAC in a recent study, all TEVC recordings were performed two days after cRNA injection.
On the day of the TEVC recording, all compound dilutions were prepared in a saline solution [115 mM NaCl, 2.5 mM KCl, 10 mM MOPS (pH 7.5), 1.8 mM CaCl2, 0.1 mM MgCl2], and pH was adjusted to 7.5 (if needed). Oocytes were placed in a recording chamber continuously perfused with this saline solution, and the compounds were applied in the perfusate. Both voltage and current electrodes were agar-plugged with 3 M KCl with a resistance of 0.2–2.0 MΩ. Oocytes were voltage-clamped at −50 mV (except in the studies of the chimeras and their parent receptors where they were clamped at −60 mV, section 3.1), by a Gene Clamp 500B amplifier, and current signals were digitized by a Digidata 1322A (both from Axon Instruments, Union City, CA). Currents were recorded using pCLAMP 10 (Molecular Devices, Sunnyvale, CA). The recordings were performed at room temperature.
In all recordings, compounds or compound combinations were applied in the bath until the peak current decayed to a steady state (up to 30 s). […] The antagonist properties of compounds were determined by pre-application of the compound to the perfusate for 30 s followed by co-application of the compound and the agonist. In all recordings, washes of 1–5 min were executed between the ligand applications, the length of the washes depending on the agonist concentrations used and on the return to baseline current amplitude.
as §2

m5-HT3A^FPR/ZAC = assay: TEVC in oocytes, Cys-loop modified chimera m5-HT3A^FPR/ZAC; type: cell-based, mouse/human; conditions: data not shown
Procedure: as §1
To probe the effects of exchanges of regions involved in the ECD/TMD cross-talk between the two CLRs fused in a chimera on its functionality, we constructed 12 additional chimeras, three for each of the four original chimeras (Fig. 1A). Inspired by the similar modifications that have been introduced in a functional GLIC/hα1-Gly chimera, we swapped one or both of two specific regions: the three-residue FPX (Phe-Pro-X) motif in the Cys-loop of the ECD (FPR, FPF and […] in ZAC, m5-HT3A and hα1 GlyR, respectively), which is known to protude into proximity of the M2-M3 linker during the ECD/TMD cross-talk, and the extracellular C-terminus of the TMD, which differs substantially in both amino acid sequence and length between ZAC and the two classical CLRs combined with it in the chimeras (Fig. 4B). […] In light of this, it was not surprising that the four chimeras comprising exchanges of both the FPX motif and the C-terminus also were non-functional (data not shown).

ZAC/hα1-Gly = assay: TEVC in oocytes expressing ZAC/hα1-Gly chimera; type: cell-based, human; conditions: pH 4.5
Procedure: as §1, §2
(§3) Initially, we constructed four chimeric subunits fusing the ZAC ECD or TMD-ICD with the complementary domains from either the m5-HT3A or the hα1 GlyR subunit: ZAC/m5-HT3A, m5-HT3A/ZAC, ZAC/hα1-Gly and hα1-Gly/ZAC (Fig. 1A). […] (Fig. 1A).

ZAC/m5-HT3A = assay: TEVC in oocytes expressing ZAC/m5-HT3A chimera; type: cell-based, mouse/human; conditions: pH 4.5; n = 5
Procedure: as §1, §2, §3

hα1-Gly/ZAC = assay: TEVC in oocytes expressing hα1-Gly/ZAC chimera; type: cell-based, human; conditions: pH 4.5; n = 5
Procedure: as §1, §2, §3

ZAC/m5-HT3A-II = assay: TEVC in oocytes expressing ZAC/m5-HT3A-II chimera; type: cell-based, mouse/human; conditions: Zn^2+ 10 mM; H^+ pH 4.0; data not shown
Procedure: as §1

ZAC^D116A/DH8A/H210A = target: T3, ZAC^D116A/DH8A/H210A (Homo sapiens, UniProt Q401N2, A152T/D140A/D142A/H144A); assay: TEVC in oocytes, Cluster 1 triple mutant; type: cell-based; conditions: pH 4.0
T3 construct: expressed in transfected cells; host or cells: Xenopus oocytes injected with cRNA (pUNIV vector)
Procedure: as §1
as §2, with “For the data where statistical analysis was performed, a one-way ANOVA was used.” left out
(§4) The putative involvement of candidate residues in Clusters 1, 2, 3 and 4 in Zn^2+ binding to ZAC was investigated in by an elaborate alanine mutagenesis scanning. […] The determined IpH 4.0 value was used in part as a control and in part to enable the distinction of ZAC mutants non-responsive to Zn^2+ due to elimination of their ability to bind the metal ion from those where the mutation had eliminated cell surface expression and/or disrupted overall functionality of the receptor complex. […]

ZAC^H210A = target: T4, ZAC^H210A (Homo sapiens, UniProt Q401N2, A152T/H144A); assay: TEVC in oocytes, His120 Ala mutant; type: cell-based; conditions: pH 4.0
T4 construct: expressed in transfected cells; host or cells: Xenopus oocytes injected with cRNA (pUNIV vector)
Procedure: as §1
as §2, with “For the data where statistical analysis was performed, a one-way ANOVA was used.” left out
as §4

[1] = target: T5, ZAC^E136A/H139A/D143A/H144A (Homo sapiens, UniProt Q401N2, A152T/D167A/E160A/H163A/H168A); assay: TEVC in oocytes, Cluster 2 quadruple mutant; type: cell-based; conditions: Zn^2+ 10 mM; H^+ pH 4.0; data not shown
T5 construct: expressed in transfected cells; host or cells: Xenopus oocytes injected with cRNA (pUNIV vector)
Procedure: as §1
as §2, with “For the data where statistical analysis was performed, a one-way ANOVA was used.” left out
as §4

[2] = target: T6, ZAC^E24A/E89A/D105A/D108A/E130A (Homo sapiens, UniProt Q401N2, A152T/D129A/D132A/E113A/E154A/E48A); assay: TEVC in oocytes, Cluster 3 quintuple mutant; type: cell-based; conditions: H^+ pH 4.0; Zn^2+ 10 mM; data not shown
T6 construct: expressed in transfected cells; host or cells: Xenopus oocytes injected with cRNA (pUNIV vector)
Procedure: as §1
as §2, with “For the data where statistical analysis was performed, a one-way ANOVA was used.” left out
as §4

[3] = sustained (4 min) application of 100 μM 5-HT
[4] = sustained (4 min) application of 3 μM 5-HT

T3 sequence (Q401N2 26-412 D140A/D142A/H144A/A152T): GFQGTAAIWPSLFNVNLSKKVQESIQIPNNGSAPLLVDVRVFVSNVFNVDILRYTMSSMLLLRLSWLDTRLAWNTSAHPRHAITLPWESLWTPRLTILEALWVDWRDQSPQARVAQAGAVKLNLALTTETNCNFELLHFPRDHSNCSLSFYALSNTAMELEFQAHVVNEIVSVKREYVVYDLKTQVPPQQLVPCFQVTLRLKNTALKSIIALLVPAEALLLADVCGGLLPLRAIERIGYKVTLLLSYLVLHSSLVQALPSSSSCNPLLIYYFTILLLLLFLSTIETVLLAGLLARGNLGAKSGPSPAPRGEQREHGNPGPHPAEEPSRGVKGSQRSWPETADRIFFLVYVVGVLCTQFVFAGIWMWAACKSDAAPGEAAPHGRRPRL
T5 sequence (Q401N2 26-412 A152T/E160A/H163A/D167A/H168A): as the sequence (Q401N2 26-412 D140A/D142A/H144A/A152T) above, with A115D, A117D, A119H, E135A, H138A, D142A, H143A counted along it
T6 sequence (Q401N2 26-412 E48A/E113A/D129A/D132A/A152T/E154A): as the sequence (Q401N2 26-412 D140A/D142A/H144A/A152T) above, with E23A, E88A, D104A, D107A, A115D, A117D, A119H, E129A counted along it
T4 sequence (Q401N2 26-412 H144A/A152T): as the sequence (Q401N2 26-412 D140A/D142A/H144A/A152T) above, with A115D, A117D counted along it

Imax (current amplitude evoked by saturating agonist) (WT m5-HT3AR; 300 μM 5-HT, n = 7) [μA]	nH ± S.E.M. (Hill slope) (WT m5-HT3AR; agonist, n = 7)	Iresidual, 4 min (WT m5-HT3AR; [3])	Δtstart-to-peak (WT m5-HT3AR; [3]) [s]	time to complete return to baseline (WT m5-HT3AR; sustained application of 100 μM 5-HT, mean ± S.E.M., n = 7) [s]	Imax (current amplitude evoked by saturating agonist) (m5-HT3A/ZAC; 3 μM 5-HT, n = 12) [μA]	5-HT-evoked current amplitudes (m5-HT3A/ZAC; high-expressing half of the oocytes)	5-HT-evoked current amplitudes (m5-HT3A/ZAC; low-expressing half of the oocytes)	Iresidual, 4 min (m5-HT3A/ZAC; [4])	Δtstart-to-peak (m5-HT3A/ZAC; [4]) [s]	Compound	concentration-response relationship compared to m5-HT3A/ZAC (m5-HT3A^FPR/ZAC)	IpH 4.5 ± S.E.M. (m5-HT3A/ZAC; pH 4.5, n = 4) [μA]	agonist-evoked current (ZAC/hα1-Gly)	IpH 4.5 ± S.E.M. (ZAC/m5-HT3A) [μA]	IpH 4.5 ± S.E.M. (hα1-Gly/ZAC) [μA]	agonist-evoked current (ZAC/m5-HT3A-II)	IpH 4.0 range (ZAC^D116A/DH8A/H210A)	IpH 4.0 (ZAC^H210A)	agonist responsiveness [1]	agonist responsiveness [2]
2.92 ± 0.13	1.3 ± 0.3	~0 (none) % of Ipeak	2.1 ± 0.4	98 ± 12	0.60 ± 0.19	0.8–2.1 μA	0.1–0.2 μA	67 % of Ipeak and 67 ± 6 % of Ipeak	46 ± 7.2	NCCc1c[nH]c2ccc(O)cc12 [5-HT, 5-hydroxytryptamine]	not significantly different	–	–	–	–	–	–	–	–	–
–	–	–	–	–	–	–	–	–	–	[H+] [H^+]	–	−0.0027 ± 0.0007	robust currents	−0.0033 ± 0.0003	−0.0045 ± 0.0019	did not evoke significant currents	40–100 nA	30–110 nA	non-responsive	non-responsive
